Some results are limits rather than exact numbers.

We go through 29 compounds from patent publication US11957680B2, “Pyruvate kinase activators for use in treating blood disorders” (Agios Pharmaceuticals, Inc., priority 2017, dated 2024).

Test [1] concerns the target T1, wild type PKR (Homo sapiens, UniProt P30613). Description: PKR (wild type) enzyme AC50 assay, LDH/NADH-coupled, absorbance at 340 nm. Type of test: biochemical. To be noted: for EC50: Table 4, AC50, enzyme assay, read-out: PKR WT; for PKR WT AC50 / AC50: Table 2, enzyme assay; for AC50: read-out: PKR WT AC50. Here is the method: (§1) Example 11. PKR Mutant Assay
(§2) PKR or PKR mutant enzyme solution was diluted into a reaction mix, which contains 1× buffer (100 mM KCl, 50 mM Tris pH 7.5, 5 mM MgCl2) as well as PEP (conc depends on enzyme), 180 μM NADH, 0.5 units LDH, 1 mM DTT, 0.03% BSA; final assay concentrations after 1.11 fold dilution are indicated.
(§3) 2 μL of test compound was added into wells first, and then 180 μL reaction mix was added.
(§4) Reactions mixture with test compound was assembled except for ADP, and plates were stored for 60 minutes at room temperature.
(§5) 20 uL ADP was added to start reaction at room temperature and reaction progress was measured as changes in absorbance at 340 nm wavelength at room temperature.
(§6) Test Compound Preparation:
(§7) Test compound stock was made at 100× concentration in 100% DMSO (10 mM)
(§8) 1 to 3 dilutions were made for 11 points (i.e. 50 μl of first concentration added to 100 μl 100% DMSO to yield 3.33 mM, 50 μl of this added to 100 μl DMSO to yield 1.11 mM, and so forth) • 1 to 100 dilution into assay (2 μl in 200 μl) yielded starting concentration of 100 μM, decreasing 3 fold for 11 points.
(§9) Assay Buffer: 100 mM KCl, 50 mM Tris 7.5, 5 mM MgCl2, 1 mM DTT, 0.03% BSA
(§10) Reaction Mixture: PKR mutant enzyme: 40-400 ng/well; ADP: 0.2-1.65 mM; PEP: 0.1-0.5 mM; NADH: 180 μM; LDH: 0.5 units (Sigma #59023); DTT: 1 mM; BSA: 0.03%.

Test [2] concerns the target PKR K410E (Homo sapiens, UniProt P30613, K410E). The test can be described thus: PKR mutant assay (K410E), AC50, LDH/NADH-coupled, absorbance at 340 nm. Format: biochemical. The conditions noted are these: for EC50: Table 4, AC50, enzyme assay; for AC50: Table 2, enzyme assay. Here is the method:
as §1, §2, §3, §4, §5, §6, §7, §8, §9, §10

The target of test [3] is PKR R510Q (Homo sapiens, UniProt P30613, R510Q). The test can be described thus: PKR mutant assay (R510Q), AC50, LDH/NADH-coupled, absorbance at 340 nm. Format: biochemical. To be noted: for EC50: Table 4, AC50, enzyme assay, read-out: PK R510Q; for AC50: read-out: PK R510Q AC50. Here is the method: as §1, §2, §3, §4, §5, §6, §7, §8, §9, §10
Test [4] has as its target T1, wild type PKR. Description: Cell based ATP assay in purified red blood cells (Cell-Titer-Glo). The arrangement: endogenous in cells; host or cells: purified red blood cells from healthy volunteers. To be noted: overnight at 37° C., ATP levels; for EC50 / Cell based ATP assay: Table 4, AC50, RBCs; for Cell based ATP assay AC50 / AC50: Table 2, RBCs. Here is the method:
Example 16. Red Blood Cell (RBC) Purification
Fresh blood drawn from healthy volunteers into K2EDTA tubes was collected. Whole blood was pelleted by spinning at 500 g for 10 minutes. Cut transfusion bag port off of Purecell leukocyte reduction neofilter (Fisher NC0267633) one (1) inch above filter. Attach a 10 ml syringe barrel to the remaining cut tubing attached to neofilter. The plasma layer was removed from the pellet of the whole blood and the pellet was resuspended in 2× volume of phosphate buffered saline (PBS). Transfer 9 ml re-suspended blood cell pellet to prepared 10 ml syringe that is attached to the neofilter. Allow whole blood to gravity flow through filter until all fluid runs through upper tubing into filter disc. Add plunger to the syringe, remove syringe from clamp and invert the filter, then plunge air through the syringe filter system. Using a new 5 ml syringe, remove filtered RBCs from the bag by the syringe port and transfer purified RBCs to a 5 ml snap cap tube that has been incubated on ice. Spin 5 ml snap cap tube at 500 g for 10 minutes at 15 C, aspirate supernatant and resuspend in AGAM (1×PBS, 1% glucose, 170 mg/L adenine, 5.25 g/L mannitol) at a density of 4×10^9 cells/mL.
Example 17. Cell Based ATP Assay
For cell based ATP assays, the compound as described herein was prepared in 100% DMSO as a 10 mM stock. Serial dilutions (1:4) were performed in 96-well V-bottom storage plate and then added 1:100 to 96-well V-bottom plates containing AGAM. RBCs were diluted in AGAM media to a density of 1×10^7 cells/mL before added 90 μL/well to black clear bottom assay plates (final compound concentration at 0.1% DMSO concentration). Assay plates were sealed using aluminum foil seals and incubated overnight at 37° C. in a humidified chamber. ATP levels were read out using Cell-Titer-Glo (Promega).

Sequence of PKR K410E (P30613 whole entry K410E): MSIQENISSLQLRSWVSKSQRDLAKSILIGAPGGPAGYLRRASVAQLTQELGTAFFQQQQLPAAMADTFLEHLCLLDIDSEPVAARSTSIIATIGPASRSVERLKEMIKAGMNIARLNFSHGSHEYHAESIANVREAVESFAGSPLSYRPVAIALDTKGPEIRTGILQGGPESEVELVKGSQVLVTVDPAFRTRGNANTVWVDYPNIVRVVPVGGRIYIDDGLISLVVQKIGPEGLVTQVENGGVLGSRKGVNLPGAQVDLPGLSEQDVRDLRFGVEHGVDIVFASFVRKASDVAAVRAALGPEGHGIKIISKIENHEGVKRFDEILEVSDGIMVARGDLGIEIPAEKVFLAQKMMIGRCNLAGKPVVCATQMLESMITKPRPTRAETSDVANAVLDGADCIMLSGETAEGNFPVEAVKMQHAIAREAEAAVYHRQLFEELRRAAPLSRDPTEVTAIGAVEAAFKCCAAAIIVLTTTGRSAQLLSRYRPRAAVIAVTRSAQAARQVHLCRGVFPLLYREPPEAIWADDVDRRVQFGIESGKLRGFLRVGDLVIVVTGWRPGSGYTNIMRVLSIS
T1 sequence (P30613 whole entry): as the sequence (P30613 whole entry K410E) above, with E410K counted along it
Sequence of PKR R510Q (P30613 whole entry R510Q): as the sequence (P30613 whole entry K410E) above, with E410K, R510Q counted along it

With `Cn1c2nc(Cc3cc[nH]n3)sc2c2cnn(Cc3cccc4nn[nH]c34)c(=O)c21` [Compound 202], the EC50 in test [1] was less than 0.3 µM; in test [2], less than 0.3 µM; in test [3] it was less than 0.3 µM; in test [4], not above 1 µM.

For the compound `Cc1nc2c(s1)c1cnn(Cc3ccc([N+](=O)[O-])cc3)c(=O)c1n2C` [Compound 48], the “PKR WT AC50” value in test [1] is reported as “No Fit”. Moreover, the AC50 in test [2] is more than 0.8 µM; in test [3] (Table 2, enzyme assay), more than 0.8 µM. The “Cell based ATP assay AC50” value in test [4] is recorded as “No Fit”.

For the compound `Cn1c2nc(C3(c4ccccc4)CC3)sc2c2cnn(Cc3cccc4[nH]ncc34)c(=O)c21` [Compound 140], the AC50 is more than 0.8 µM in test [1]; more than 0.8 µM in test [2]; more than 0.8 µM in test [3] (Table 2, enzyme assay); more than 1 µM in test [4].

Take `Cc1nc2c(s1)c1cnn(Cc3cc[nH]n3)c(=O)c1n2C` [Compound 68]: the concentration at half-maximal activity (AC50) in test [1] is less than 0.3 µM; in test [2], less than 0.3 µM; in test [3] (Table 2, enzyme assay), less than 0.3 µM; in test [4], not above 1 µM.

Turning to `Cn1c2nc([S+](C)[O-])sc2c2cnn(Cc3ccc(C(N)=O)cc3)c(=O)c21` (centres unmarked) [Compound 98], the “PKR WT AC50” value in test [1] is “No Fit”. Further, the values for the AC50 in test [2] and in test [4] were more than 0.8 µM and more than 1 µM, respectively. The “PK R510Q AC50” value in test [3] (Table 2, enzyme assay) is on record as “No Fit”.

On to `COC(=O)Cc1nc2c(s1)c1cnn(Cc3cccc4[nH]ncc34)c(=O)c1n2C` [Compound 131], for which the AC50 in test [1] is 0.301 to 0.8 µM; in test [2] it was less than 0.3 µM; in test [3] (Table 2, enzyme assay), less than 0.3 µM; in test [4] it was more than 1 µM.

With `COc1cccc(Cn2ncc3c4sc(C(F)(F)F)nc4n(C)c3c2=O)c1` [Compound 53], the AC50 is less than 0.3 µM in test [1]; less than 0.3 µM in test [2]; less than 0.3 µM in test [3] (Table 2, enzyme assay); more than 1 µM in test [4].

For `COc1cccc(Cn2ncc3c4sc(Cc5cc[nH]n5)nc4n(C)c3c2=O)c1` [Compound 144], the AC50 was less than 0.3 µM in test [1]; less than 0.3 µM in test [2]; less than 0.3 µM in test [3] (Table 2, enzyme assay); not above 1 µM in test [4].

Turning to `Cn1c2nc(C#N)sc2c2cnn(Cc3cccc4[nH]ncc34)c(=O)c21` [Compound 84], the AC50 is less than 0.3 µM in test [1]; 0.301 to 0.8 µM in test [2]; 0.301 to 0.8 µM in test [3] (Table 2, enzyme assay); more than 1 µM in test [4].

With `Cn1c2nc(Cc3ccncc3)sc2c2cnn(Cc3cccc4[nH]ncc34)c(=O)c21` [Compound 161], the AC50 in test [1] is more than 0.8 µM; in test [2], more than 0.8 µM; in test [3] (Table 2, enzyme assay), more than 0.8 µM; in test [4], more than 1 µM.

For `Cn1c2nc(CO)sc2c2cnn(Cc3cccc4[nH]ncc34)c(=O)c21` [Compound 105], the AC50 in test [1] is less than 0.3 µM; in test [2], less than 0.3 µM; in test [3] (Table 2, enzyme assay) it was less than 0.3 µM; in test [4] it was not above 1 µM.

`Cn1c2nc(Cc3cc[nH]n3)sc2c2cnn(Cc3ccc4c(F)c[nH]c4n3)c(=O)c21` [Compound 383]: the EC50 in test [1] is less than 0.3 µM; in test [2], less than 0.3 µM; in test [3] it was less than 0.3 µM; in test [4], not above 1 µM.

Turning to `Cn1c2nc([S+](C)[O-])sc2c2cnn(Cc3cccc4[nH]ncc34)c(=O)c21` (centres unmarked) [Compound 71], the AC50 in test [1] was 0.301 to 0.8 µM; in test [2], 0.301 to 0.8 µM; in test [3] (Table 2, enzyme assay) it was 0.301 to 0.8 µM; in test [4], not above 1 µM.

For `Cn1c2nc(Cc3cc[nH]n3)sc2c2cnn(CCc3cccnc3)c(=O)c21` [Compound 399], the EC50 in test [1], in test [2] and in test [3] was more than 0.8 µM in each case. For the same compound, the “Cell based ATP assay” value in test [4] was “No Fit”.

As for `Cc1nc2c(s1)c1cnn(Cc3cccc(CO)c3)c(=O)c1n2C` [Compound 45], the AC50 in test [1] is less than 0.3 µM; in test [2], less than 0.3 µM; in test [3] (Table 2, enzyme assay), less than 0.3 µM; in test [4], not above 1 µM.

With `Cn1c2nc(Cn3ccnc3)sc2c2cnn(Cc3cccc(C(N)=O)c3)c(=O)c21` [Compound 390], the EC50 in test [1], in test [2] and in test [3] was more than 0.8 µM each time. Besides, the “Cell based ATP assay” value in test [4] is reported as “No Fit”.

Consider `COC(=O)c1nc2c(s1)c1cnn(Cc3cccc(OC)c3)c(=O)c1n2C` [Compound 43], for which the concentration at half-maximal activity (AC50) was more than 0.8 µM in test [1]; more than 0.8 µM in test [2]; 0.301 to 0.8 µM in test [3] (Table 2, enzyme assay). The “Cell based ATP assay AC50” value in test [4] is on record as “No Fit”.

For the compound `COc1cccc(Cn2ncc3c4sc(S(C)(=O)=O)nc4n(C)c3c2=O)c1` [Compound 25], the AC50 in test [1] is less than 0.3 µM; in test [2] it was less than 0.3 µM; in test [3] (Table 2, enzyme assay) it was less than 0.3 µM; in test [4], more than 1 µM.

Regarding `Cn1c2nc(Cc3c[nH]nn3)sc2c2cnn(Cc3cccc(OC(F)(F)F)c3)c(=O)c21` [Compound 290], the EC50 in test [1] was less than 0.3 µM; in test [2], less than 0.3 µM; in test [3], less than 0.3 µM; in test [4] it was not above 1 µM.

With `CC(c1ccccc1)c1nc2c(s1)c1cnn(Cc3cccc4c3cnn4C)c(=O)c1n2C` (centres unmarked) [Compound 120], the AC50 is 0.301 to 0.8 µM in test [1]; 0.301 to 0.8 µM in test [2]; 0.301 to 0.8 µM in test [3] (Table 2, enzyme assay); not above 1 µM in test [4].

For `COc1ccccc1Cn1ncc2c3sc(C)nc3n(C)c2c1=O` [Compound 8], the half-maximal activity concentration (AC50) in test [1] is more than 0.8 µM; in test [2], 0.301 to 0.8 µM; in test [3] (Table 2, enzyme assay), 0.301 to 0.8 µM; in test [4], more than 1 µM.

Consider `CSc1nc2c(s1)c1cnn(Cc3cn4cccnc4n3)c(=O)c1n2C` [Compound 107], for which the “PKR WT AC50” value in test [1] is “No Fit”. Also, the AC50 in test [2] was more than 0.8 µM; in test [3] (Table 2, enzyme assay) it was more than 0.8 µM. Besides, the “Cell based ATP assay AC50” value in test [4] is recorded as “No Fit”.

Regarding `COc1cccc(Cn2ncc3c4sc(OC)nc4n(C)c3c2=O)c1` [Compound 22], the AC50 was less than 0.3 µM in test [1]; less than 0.3 µM in test [2]; less than 0.3 µM in test [3] (Table 2, enzyme assay); more than 1 µM in test [4].

In the case of `CN(c1csc(Cc2cnc(=O)[nH]c2)n1)c1ccnn(Cc2cccc3[nH]ncc23)c1=O` [Compound 208], the EC50 in test [1] is more than 0.8 µM; in test [2], more than 0.8 µM; in test [3], more than 0.8 µM; in test [4], more than 1 µM.

With `Cn1ncc2c(Cn3ncc4c5sc(Cc6cc[nH]n6)nc5n(C)c4c3=O)cccc21` [Compound 201], the EC50 in test [1] is less than 0.3 µM; in test [2], less than 0.3 µM; in test [3], less than 0.3 µM; in test [4] it was not above 1 µM.

As for `Cn1c2nc(Cc3ccccn3)sc2c2cnn(Cc3cccc4[nH]ncc34)c(=O)c21` [Compound 151], the AC50 is less than 0.3 µM in test [1]; less than 0.3 µM in test [2]; less than 0.3 µM in test [3] (Table 2, enzyme assay); not above 1 µM in test [4].

Consider `COc1cc(Cc2nc3c(s2)c2cnn(Cc4cccc5[nH]ncc45)c(=O)c2n3C)ccn1` [Compound 215], for which the EC50 in test [1] was less than 0.3 µM; in test [2] it was less than 0.3 µM; in test [3] it was less than 0.3 µM; in test [4] it was not above 1 µM.

As to `Cn1c2nc(Cc3cc[nH]n3)sc2c2cnn(Cc3cccc4[nH]c(=O)[nH]c34)c(=O)c21` [Compound 252], the EC50 is less than 0.3 µM in test [1], less than 0.3 µM in test [2], less than 0.3 µM in test [3] and not above 1 µM in test [4].

For the compound `Cn1c2nc(Cc3cc[nH]n3)sc2c2cnn(Cc3ccc4nc[nH]c4n3)c(=O)c21` [Compound 381], the EC50 is less than 0.3 µM in test [1], less than 0.3 µM in test [2], less than 0.3 µM in test [3] and not above 1 µM in test [4].
